Patent US20240190872A1, “FABI INHIBITORS FOR GRAM-NEGATIVE PATHOGENS” (THE BOARD OF TRUSTEES OF THE UNIVERSITY OF ILLINOIS, priority 2021, published 2024)
≈ marks a conversion by molar mass, not a printed value.

Assays:
S. aureus ATCC 29213 = experiment: Antimicrobial susceptibility test (MIC), micro-dilution broth; type: cell-based; conditions: Staphylococcus aureus, ATCC29213; S. aureus ATCC 29213; read-out: MIC S. aureus 29213
In short: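 CLSI micro-dilution broth method in cation-adjusted Mueller-Hinton broth, in biological triplicate; human serum (pooled, filtered) was also used.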

Hepatocyte stability = type: in vitro ADME
E. coli AR-55 = experiment: Murine urinary tract infection (UTI) model; type: in vivo, C3H/HeJ mice; conditions: TID
Protocol: FIG. 4. In-vivo efficacy of fabimycin in a murine UTI. After inducing diuresis, infection initiated in C3H/HeJ mice (8 per arm, 1.38×10^9 CFU/mouse transurethral) with E. coli AR-55 and treated with fabimycin at varying concentrations three times daily with bacterial enumeration at 168 h post-infection. Percentage in parenthesis indicates the percentage of animals with bacterial counts below the limit of detection (LOD).
(§1) UTIs represent one of the biggest risks for healthy individuals in terms of exposure to antibiotic-resistant bacteria and many individuals contract one in their lifetime (roughly 1 in 2 women and 1 in 10 men); as such, these infections from Gram-negative pathogens, particularly those that are drug-resistant, remain a major clinical challenge. As E. coli is the causative agent in the great majority of UTIs fabimycin was evaluated in a murine UTI model with a challenging, extensively resistant strain of carbapenem resistant E. coli (fabimycin MIC=2 μg/mL). When dosed at 33.3 mg/kg, TID fabimycin was able to achieve 3.0, 2.8, 2.9, and 1.9 log10 reductions in bacterial load relative to the vehicle in the spleen, bladder, liver, and kidneys tissues, respectively (FIG. 4).
Chart 1. Summary of Fabimycin in vivo models. Log reductions are relative to the vehicle. • S. aureus • Neutropenic thigh infection w/S. aureus USA300 LAC • 5 mg/kg, r.o. • 26 h, 2.6 log reduction • A. baumannii • Neutropenic thigh infection w/A. baumannii AR-0299 • 50 mg/kg, intramuscular (2, 6, and 11 h post-infection) • 26 h, 2.3 log reduction • Acute lung infection w/A. baumannii AR-0299 • 50 mg/kg, intramuscular (QD) • 48 h, 3.9 log reduction • Neutropenic thigh infection w/A. baumannii AR-0088 • 75 mg/kg IV, QID • 26 h, 1.75 log reduction • E. coli • Urinary tract infection w/E. coli AR-0055 • 33.3 mg/kg IV, TID (100 mg/kg a day) • 168 h post-infection • Bladder—2.78 log reduction • Liver—2.85 log reduction • Spleen—3.04 log reduction • Kidneys—1.85 log reduction • Urine—2.32 log reduction

A. baumannii AR-88 = experiment: Neutropenic mouse thigh infection; type: in vivo, female BALB/c mice
Protocol: FIG. 7. […] A) Neutropenic mouse thigh infection model initiated in female BALB/c mice with A. baumannii AR-88 (1.36×10^5 CFU per mouse intramuscular, left thigh) were treated with vehicle (5 mice) or fabimycin (10 mice) four times a day (75 mg/kg intravenously) and bacterial burden evaluated at 26 h post-infection. B) Neutropenic mouse thigh infection initiated in CD-1 mice with S. aureus USA300 LAC (2.3×10^6 CFU per mouse intramuscular in thigh) were treated with vehicle (8 mice) or FabI inhibitor (8 mice per group) 2 and 7 h post-infection (5 mg/kg retro-orbital IV), and the bacterial burden was evaluated 24 h post-infection.
(§2) With formulation, MTD, and pharmacokinetic data in hand, the efficacy of fabimycin was evaluated in murine infection models. To start, a comparative assessment was made of fabimycin and Debio-1452-NH3 in two murine neutropenic infection models using a dosing regimen that is at the MTD for Debio-1452-NH3 but below the MTD for fabimycin (three doses, intramuscular, at 50 mg/kg).
(§3) Chart 1. Summary of Fabimycin in vivo models.

in vitro = conditions: mouse, plasma, Plasma stability, t1/2, Mouse
A. baumannii AR-299 = experiment: Neutropenic mouse thigh infection; type: in vivo, CD-1 mice; conditions: 50 mg/kg, intramuscular (2, 6, and 11 h post-infection), 26 h
Protocol: as §2, §3

CYP 1A2 = CYP 1A2 (Homo sapiens (Human), UniProt P05177); experiment: CYP inhibition
Sequence of CYP 1A2 (P05177 whole entry): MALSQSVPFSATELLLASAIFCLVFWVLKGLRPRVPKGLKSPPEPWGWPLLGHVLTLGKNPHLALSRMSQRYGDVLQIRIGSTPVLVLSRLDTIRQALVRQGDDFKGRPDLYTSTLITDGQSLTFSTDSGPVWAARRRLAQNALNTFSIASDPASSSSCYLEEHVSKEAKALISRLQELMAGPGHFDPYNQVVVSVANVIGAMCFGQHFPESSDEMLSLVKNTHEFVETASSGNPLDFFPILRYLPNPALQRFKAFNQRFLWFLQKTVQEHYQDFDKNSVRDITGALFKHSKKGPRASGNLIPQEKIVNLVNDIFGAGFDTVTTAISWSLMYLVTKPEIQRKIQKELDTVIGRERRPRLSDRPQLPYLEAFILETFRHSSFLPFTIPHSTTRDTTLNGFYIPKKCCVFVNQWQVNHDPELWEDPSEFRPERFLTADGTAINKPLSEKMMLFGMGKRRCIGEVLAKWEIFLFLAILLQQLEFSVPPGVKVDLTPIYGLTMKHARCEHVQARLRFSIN

CYP 2C9 = CYP 2C9 (Homo sapiens (Human), UniProt P11712); experiment: biochemical
Sequence of CYP 2C9 (P11712 whole entry): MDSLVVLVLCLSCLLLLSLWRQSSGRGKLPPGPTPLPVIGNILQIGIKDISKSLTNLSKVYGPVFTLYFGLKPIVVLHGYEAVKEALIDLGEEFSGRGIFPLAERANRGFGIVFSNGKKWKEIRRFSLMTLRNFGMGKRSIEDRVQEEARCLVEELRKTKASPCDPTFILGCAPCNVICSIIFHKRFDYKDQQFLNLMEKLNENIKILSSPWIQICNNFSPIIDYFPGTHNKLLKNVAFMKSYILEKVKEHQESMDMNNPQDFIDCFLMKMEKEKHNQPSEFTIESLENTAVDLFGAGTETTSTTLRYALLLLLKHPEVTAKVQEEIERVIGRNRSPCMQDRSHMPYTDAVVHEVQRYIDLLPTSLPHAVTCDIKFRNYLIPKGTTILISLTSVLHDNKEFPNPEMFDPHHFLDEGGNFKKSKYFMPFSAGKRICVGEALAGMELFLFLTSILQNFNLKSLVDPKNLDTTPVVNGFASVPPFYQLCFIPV

[1] = test system: carbapenem resistant E. coli; experiment: MIC against infecting strain of the UTI model; type: cell-based; conditions: Escherichia coli; extensively resistant carbapenem resistant E. coli of UTI model
Protocol: as §1

CYP 2C19 = CYP 2C19 (Homo sapiens (Human), UniProt P33261); experiment: biochemical
Sequence of CYP 2C19 (P33261 whole entry): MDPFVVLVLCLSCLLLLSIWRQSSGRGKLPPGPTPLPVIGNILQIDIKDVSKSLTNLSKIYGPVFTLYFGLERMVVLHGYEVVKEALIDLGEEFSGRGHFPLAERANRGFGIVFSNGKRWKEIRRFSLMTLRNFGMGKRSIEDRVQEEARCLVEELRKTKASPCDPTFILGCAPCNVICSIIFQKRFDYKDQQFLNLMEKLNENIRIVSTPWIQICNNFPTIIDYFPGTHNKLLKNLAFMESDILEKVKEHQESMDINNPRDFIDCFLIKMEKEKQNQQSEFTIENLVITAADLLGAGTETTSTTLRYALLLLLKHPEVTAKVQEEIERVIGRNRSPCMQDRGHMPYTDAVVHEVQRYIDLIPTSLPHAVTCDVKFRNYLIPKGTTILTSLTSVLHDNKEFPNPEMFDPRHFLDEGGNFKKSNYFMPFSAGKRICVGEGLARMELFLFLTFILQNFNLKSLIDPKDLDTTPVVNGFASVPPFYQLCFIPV

[2] = 33.3 mg/kg IV, 168 h post-infection

Cc1c(CN(C)C(=O)/C=C/c2cnc3c(c2)CC[C@H](N)C(=O)N3)oc2ccccc12 [(S)-11, (S,E)-3-(7-amino-8-oxo-6,7,8,9-tetrahydro-5H-pyrido[2,3-b]azepin-3-yl)-N-methyl-N-((3-methylbenzofuran-2-yl)methyl)acrylamide]
MIC (S. aureus ATCC 29213): 4 ng/mL (≈ 0.00989 µM)
Hepatocyte stability, Rat (Hepatocyte stability): 0.9 μL/min/million cells
log reduction relative to the vehicle, Bladder (E. coli AR-55; [2]): 2.78 log
log reduction relative to the vehicle, Kidneys (E. coli AR-55; [2]): 1.85 log
log reduction relative to the vehicle, Liver (E. coli AR-55; [2]): 2.85 log
log reduction relative to the vehicle, Spleen (E. coli AR-55; [2]): 3.04 log
log reduction relative to the vehicle, Urine (E. coli AR-55; [2]): 2.32 log
log10 reduction in bacterial load relative to the vehicle, bladder (E. coli AR-55; 33.3 mg/kg): 2.8 log10
log10 reduction in bacterial load relative to the vehicle, kidneys (E. coli AR-55; 33.3 mg/kg): 1.9 log10
log10 reduction in bacterial load relative to the vehicle, liver (E. coli AR-55; 33.3 mg/kg): 2.9 log10
log10 reduction in bacterial load relative to the vehicle, spleen (E. coli AR-55; 33.3 mg/kg): 3.0 log10
log reduction relative to the vehicle (A. baumannii AR-88; 75 mg/kg IV, QID, 26 h): 1.75 log
reduction of bacterial burden (A. baumannii AR-88; NDM-1 containing A. baumannii, neutropenic thigh): ~2 log(CFU/thigh)
half-life (in vitro): 82.6 min
log reduction relative to the vehicle (A. baumannii AR-299): 2.3 log
IC50 (CYP 1A2): 31 µM
stability in mouse plasma (in words) (Plasma stability): considerable instability
IC50 (CYP 2C9): 27 µM
MIC [1]: 2 µg/mL (≈ 4.94 µM)
IC50 (CYP 2C19): 60 µM
